The record followed here is patent US20250109387A1, “SMOOTH MUSCLE CELLS SEEDED IN MICROCHANNELS WITHIN HYDROGELS TO FORM FUNCTIONAL MEDIAL LAYERS IN ENGINEERED MICROVASCULATURE” (VANDERBILT UNIVERSITY, priority 2023, published 2025).

For this assay, the system named is HASMCs. As to the kind of experiment: Calcium imaging of HASMCs carrying GCaMP6f after ET-1 exposure. It counts as cell-based, human. As to conditions: 500 nM endothelin-1; HASMCs cultured in flasks (2D) and in channels (3D); fluorescence microscopy. The procedure:
Calcium imaging: HASMCs were infected with lentivirus carrying GCaMP6f and cultured in flasks (2D) and in channels (3D). Cells were then exposed to 500 nM endothelin-1 (ET-1, vasoconstrictor), and imaged via fluorescence microscopy (FIGS. 16A-16F).

As for endothelin-1 [ET-1], the “intracellular Ca^2+ release (GCaMP6f fluorescence over time)” value is listed as “substantial intracellular Ca^2+ release”.
